Counter-ions that a name gives are not always drawn. Positions of bridges follow the written chain, without caps; N, C: chain ends. Non-standard residues stand in square brackets, D forms with d. Residues, ends and D or L forms follow the SMILES beside them. *: point of attachment. Me3N+(CH2)2O(CH2)2O(CH2)2CO = C[N+](C)(C)CCOCCOCCC(=O)*; CH2CH2OCH2CH2OCH2CH2NMe3+ = C[N+](C)(C)CCOCCOCC*; Trp(7-Me) = Cc1cccc2c(C[C@H](N)C(=O)O)c[nH]c12; dLys(Me3) = C[N+](C)(C)CCCC[C@@H](N)C(=O)O; 2Nal = N[C@@H](Cc1ccc2ccccc2c1)C(=O)O; AEF = NCCOc1ccc(C[C@H](N)C(=O)O)cc1; 3Pal = N[C@@H](Cc1cccnc1)C(=O)O; Lys(Me) = CNCCCC[C@H](N)C(=O)O; Pen = CC(C)(S)[C@H](N)C(=O)O; Thp = NC1(C(=O)O)CCOCC1; Me2NCH2CH2 = CN(C)CC*; Tfa = O=C(C(F)(F)F)*; Sar = CNCC(=O)O
Experiment: Exposed Polar Surface Area (EPSA)
Type: physicochemical
Settings: SFC on Chirex 3014 column; sample 1 mM DMSO stock; read-out: EPSA
Procedure, shortened: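 Retention-based polarity: supercritical CO2 with 20 mM ammonium formate in MeOH (5–60%, 20%/min), Chirex 3014 column, 35 °C. Calibrated against 8 standards to give EPSA (Å^2); each sample measured twice.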

EPSA	Compound
154 A^2	CC(=O)N(C)CCCC[C@@H]1NC(=O)[C@H](Cc2c[nH]c3c(C)cccc23)NC(=O)[C@H]([C@@H](C)O)NC(=O)[C@H](CC(=O)N(C)C)NC(=O)[C@@H](NC(=O)CCOCCOCC[N+](C)(C)C)C(C)(C)SSC(C)(C)[C@@H](C(=O)N[C@@H](Cc2ccc(OCCN)cc2)C(=O)N[C@@H](Cc2ccc3ccccc3c2)C(=O)NC2(C(=O)N[C@@H](CCCCN(C)C(C)=O)C(=O)N[C@@H](CC(N)=O)C(=O)N[C@@H](Cc3cccnc3)C(=O)N(C)CC(N)=O)CCOCC2)NC1=O [compound 169, cPEG3aCO-Pen(3)-N(N(Me)2)-T-7MeW-K(NMeAc)-Pen(3)-AEF-2Nal-THP-K(NMeAc)-N-3Pya-Sar-CONH2] ({Me3N+(CH2)2O(CH2)2O(CH2)2CO}-[Pen]D(NMe2)T[Trp(7-Me)][Lys(Me)](Ac)[Pen][AEF][2Nal][Thp][Lys(Me)](Ac)N[3Pal][Sar]-NH2; disulfide 1-6)
144 A^2	CC(=O)N(C)CCCC[C@@H]1NC(=O)[C@H](Cc2c[nH]c3c(C)cccc23)NC(=O)[C@H]([C@@H](C)O)NC(=O)[C@H](CC(=O)N(C)C)NC(=O)[C@@H](NC(=O)C(F)(F)F)C(C)(C)SSC(C)(C)[C@@H](C(=O)N[C@@H](Cc2ccc(OCCN(C)C)cc2)C(=O)N[C@@H](Cc2ccc3ccccc3c2)C(=O)NC2(C(=O)N[C@@H](CCC(=O)N(C)C)C(=O)N[C@@H](CC(N)=O)C(=O)N[C@@H](Cc3cccnc3)C(=O)N(C)CC(N)=O)CCOCC2)NC1=O [compound 79, CF3CO-Pen(3)-N(N(Me)2)-T-7MeW-K(NMeAc)-Pen(3)-AEF(N(Me)2)-2Nal-THP-Q(N(Me)2)-N-3Pya-Sar-CONH2] (Tfa-[Pen]D(NMe2)T[Trp(7-Me)][Lys(Me)](Ac)[Pen]Y(Me2NCH2CH2)[2Nal][Thp]E(NMe2)N[3Pal][Sar]-NH2; disulfide 1-6 (inferred))
141 A^2	CC(=O)N[C@H](CCCC[N+](C)(C)C)C(=O)N[C@@H]1C(=O)N[C@@H](CC(=O)N(C)C)C(=O)N[C@@H]([C@@H](C)O)C(=O)N[C@@H](Cc2c[nH]c3c(C)cccc23)C(=O)N[C@@H](CCCCN(C)C(C)=O)C(=O)N[C@H](C(=O)N[C@@H](Cc2ccc(OCCOCCOCC[N+](C)(C)C)cc2)C(=O)N[C@@H](Cc2ccc3ccccc3c2)C(=O)NC2(C(=O)N[C@@H](CCCCN(C)C(C)=O)C(=O)N[C@@H](CC(N)=O)C(=O)N[C@@H](Cc3cccnc3)C(=O)N(C)CC(=O)N(C)C)CCOCC2)C(C)(C)SSC1(C)C [compound 216, MeCO-k(Me)3-Pen(3)-N(N(Me)2)-T-7MeW-K(NMeAc)-Pen(3)-APEG3F-2Nal-THP-K(NMeAc)-N-3Pya-Sar-CON(Me)2] (Ac-[dLys(Me3)][Pen]D(NMe2)T[Trp(7-Me)][Lys(Me)](Ac)[Pen]Y(CH2CH2OCH2CH2OCH2CH2NMe3+)[2Nal][Thp][Lys(Me)](Ac)N[3Pal][Sar]-NMe2; disulfide 2-7)
160 A^2	Cc1cccc2c(C[C@@H]3NC(=O)[C@H]([C@@H](C)O)NC(=O)[C@H](CC(N)=O)NC(=O)[C@@H](NC(=O)CCOCCOCC[N+](C)(C)C)C(C)(C)SSC(C)(C)[C@@H](C(=O)N[C@@H](Cc4ccc(OCCN)cc4)C(=O)N[C@@H](Cc4ccc5ccccc5c4)C(=O)NC4(C(=O)N[C@@H](CCC(=O)N(C)C)C(=O)N[C@@H](CC(N)=O)C(=O)N[C@@H](Cc5cccnc5)C(=O)N(C)CC(N)=O)CCOCC4)NC(=O)[C@H](CCC(=O)N(C)C)NC3=O)c[nH]c12 [compound 137, cPEG3aCO-Pen(3)-N-T-7MeW-Q(N(Me)2)-Pen(3)-AEF-2Nal-THP-Q(N(Me)2)-N-3Pya-Sar-CONH2] ({Me3N+(CH2)2O(CH2)2O(CH2)2CO}-[Pen]NT[Trp(7-Me)]E(NMe2)[Pen][AEF][2Nal][Thp]E(NMe2)N[3Pal][Sar]-NH2; disulfide 1-6)
